Test results as given in patent US10577368B2 (The United States of America, as represented by the …, priority 2013, dated 2020).
Like-named read-outs stand apart in the source and are kept apart here.

Tests used:
[1] = Stability in liver microsomes, rat; format: in vitro ADME
[2] = Stability in simulated fluids (gastric, intestinal); format: in vitro ADME
Source text: (§1) In vitro stability parameters for selected compounds are set forth in Table 6, in accordance with an embodiment of the invention.

human DAT = human DAT (Homo sapiens (Human), UniProt Q01959); assay: Radioligand ([3H]WIN35428) binding at the dopamine transporter
Chain of human DAT (Q01959 whole entry): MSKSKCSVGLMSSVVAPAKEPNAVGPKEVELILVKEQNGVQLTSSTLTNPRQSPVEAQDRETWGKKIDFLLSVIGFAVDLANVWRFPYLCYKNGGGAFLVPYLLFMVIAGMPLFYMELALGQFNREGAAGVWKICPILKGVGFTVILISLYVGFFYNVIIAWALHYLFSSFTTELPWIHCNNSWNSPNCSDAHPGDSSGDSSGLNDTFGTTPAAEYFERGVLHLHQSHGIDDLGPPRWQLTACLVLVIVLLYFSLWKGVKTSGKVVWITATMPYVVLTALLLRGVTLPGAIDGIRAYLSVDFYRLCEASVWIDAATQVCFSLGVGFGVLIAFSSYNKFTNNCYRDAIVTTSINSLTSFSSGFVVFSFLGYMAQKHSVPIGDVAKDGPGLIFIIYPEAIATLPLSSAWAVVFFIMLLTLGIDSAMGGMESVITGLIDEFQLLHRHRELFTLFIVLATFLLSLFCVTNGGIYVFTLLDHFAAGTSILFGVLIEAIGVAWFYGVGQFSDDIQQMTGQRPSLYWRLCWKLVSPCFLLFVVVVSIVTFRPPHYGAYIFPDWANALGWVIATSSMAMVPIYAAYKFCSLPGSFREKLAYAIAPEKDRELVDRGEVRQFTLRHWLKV

[3] = Stability in liver microsomes, human; format: in vitro ADME
mA2AAR = mA2AAR (Mus musculus (Mouse), UniProt Q60613); assay: Competition binding at mA2AAR, HEK293 cell membranes
Chain of mA2AAR (Q60613 whole entry): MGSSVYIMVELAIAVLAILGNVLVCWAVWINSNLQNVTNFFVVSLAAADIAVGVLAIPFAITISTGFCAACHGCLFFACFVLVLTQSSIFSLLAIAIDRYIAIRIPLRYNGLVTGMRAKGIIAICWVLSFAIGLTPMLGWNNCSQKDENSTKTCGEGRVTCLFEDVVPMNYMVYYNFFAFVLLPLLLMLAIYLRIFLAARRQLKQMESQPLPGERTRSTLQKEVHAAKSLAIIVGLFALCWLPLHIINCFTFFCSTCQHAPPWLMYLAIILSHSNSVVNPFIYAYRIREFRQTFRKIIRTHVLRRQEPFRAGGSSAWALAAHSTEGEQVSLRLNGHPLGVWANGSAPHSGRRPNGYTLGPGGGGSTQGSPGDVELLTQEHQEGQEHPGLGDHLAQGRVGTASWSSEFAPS

hA2AAR = hA2AAR (Homo sapiens (Human), UniProt P29274); assay: Radioligand binding at hA2AAR, HEK293 cell membranes, [3H]CGS21680; details: read-out: hA2AAR % inhibition
Aqueous solubility = format: physicochemical
[4] = test system: muscarinic, adrenergic, dopamine, GABA, histamine, opiate, serotonin receptors and transporters; assay: Off-target binding panel (receptors and transporters of Table 5); details: for Interactions at other receptors of the off-target panel: 10 μM
Source text: (§2) The results are set forth below.

r Sigma 2 = r Sigma 2 (Rattus norvegicus (Rat), UniProt Q5U3Y7); assay: Off-target binding, Sigma-2
Chain of r Sigma 2 (Q5U3Y7 whole entry): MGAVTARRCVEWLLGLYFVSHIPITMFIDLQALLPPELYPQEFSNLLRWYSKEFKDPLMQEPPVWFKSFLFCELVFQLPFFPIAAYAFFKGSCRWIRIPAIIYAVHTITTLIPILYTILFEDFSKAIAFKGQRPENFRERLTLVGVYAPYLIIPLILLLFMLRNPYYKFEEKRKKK
Source text: as §2

C57BL/6J mice [5] = assay: Acute liver toxicity, oral gavage; details: 50 mg/kg oral gavage, 24 h
mA1AR = mA1AR (Mus musculus (Mouse), UniProt Q60612); assay: Competition binding at mA1AR, HEK293 cell membranes
Chain of mA1AR (Q60612 whole entry): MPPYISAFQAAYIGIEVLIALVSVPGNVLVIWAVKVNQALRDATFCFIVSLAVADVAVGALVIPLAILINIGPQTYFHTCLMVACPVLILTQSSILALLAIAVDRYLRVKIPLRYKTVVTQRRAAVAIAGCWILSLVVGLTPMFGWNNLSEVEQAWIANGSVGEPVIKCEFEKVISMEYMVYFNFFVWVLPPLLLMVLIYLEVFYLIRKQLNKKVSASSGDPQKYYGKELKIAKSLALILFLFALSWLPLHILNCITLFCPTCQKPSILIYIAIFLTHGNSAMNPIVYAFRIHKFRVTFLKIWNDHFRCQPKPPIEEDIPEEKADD

PBR = PBR (Homo sapiens (Human), UniProt P30536); assay: Off-target binding, PBR; details: at 10 μM
Chain of PBR (P30536 whole entry, species assumed): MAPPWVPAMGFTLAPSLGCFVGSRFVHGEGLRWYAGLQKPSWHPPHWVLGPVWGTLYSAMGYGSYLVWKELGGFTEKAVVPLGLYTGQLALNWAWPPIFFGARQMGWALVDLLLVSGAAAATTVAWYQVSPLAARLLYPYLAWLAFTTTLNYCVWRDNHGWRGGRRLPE
Source text: as §2

[6] = % Unbound in plasma, mouse; format: in vitro ADME
[7] = Stability in liver microsomes, mouse; format: in vitro ADME
C57BL/6J mice [8] = details: mouse, in vivo, 50 mg/kg
hA1AR = hA1AR (Homo sapiens (Human), UniProt P30542); assay: Radioligand binding at hA1AR, CHO cell membranes, [3H]R-PIA
Chain of hA1AR (P30542 whole entry): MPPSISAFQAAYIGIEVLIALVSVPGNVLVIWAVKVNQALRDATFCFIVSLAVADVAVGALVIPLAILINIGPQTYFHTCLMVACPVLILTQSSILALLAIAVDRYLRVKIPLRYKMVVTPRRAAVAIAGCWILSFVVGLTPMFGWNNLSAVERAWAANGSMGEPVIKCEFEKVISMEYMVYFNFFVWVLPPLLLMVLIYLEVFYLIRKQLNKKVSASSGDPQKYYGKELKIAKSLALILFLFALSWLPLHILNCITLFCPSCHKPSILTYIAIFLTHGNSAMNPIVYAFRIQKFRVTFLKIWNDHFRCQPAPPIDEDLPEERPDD

[9] = test system: chronic constriction injury model of neuropathic pain; assay: CCI model of neuropathic pain, reversal of mechano-allodynia; format: in vivo, mice; details: for Effect at 3 h (% ± SEM) / Max. effect Emax (% ± SEM) / Time of peak protection: 3 μmol/kg p.o., mice; for Max. effect Emax (% ± SEM) / Time of peak protection: ipsilateral hind paw; for Efficacy in reversing NP in vivo (of full reversal at peak effect): CCI model
[10] = Bioavailability / plasma pharmacokinetics; format: in vivo; details: rat, male SD rats
Description: Male SD rats were dosed intravenously at 1 mg/kg and orally at 1, 3, and 10 mg/kg. Plasma concentration as a function of time is depicted in FIG. 15.

[11] = test system: CYP1A2, CYP2C9, CYP2C19, CYP2D6, CYP3A4; assay: Inhibition of 5 CYP isozymes; format: in vitro ADME; details: human
[12] = test system: chronic constriction injury (CCI) model, mechano-allodynia; assay: Morphine analgesic tolerance in CCI model, co-administration with A3AR agonist; format: in vivo, mice
r Sigma 1 = r Sigma 1 (Rattus norvegicus (Rat), UniProt Q9R0C9); assay: Off-target binding, Sigma-1
Chain of r Sigma 1 (Q9R0C9 whole entry): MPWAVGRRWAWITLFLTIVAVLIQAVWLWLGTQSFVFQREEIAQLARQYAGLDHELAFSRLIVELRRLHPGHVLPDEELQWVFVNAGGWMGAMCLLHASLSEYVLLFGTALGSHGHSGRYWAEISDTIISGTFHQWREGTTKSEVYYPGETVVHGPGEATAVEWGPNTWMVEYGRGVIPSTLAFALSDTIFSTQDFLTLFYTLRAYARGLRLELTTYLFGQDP
Source text: as §2

mA3AR = mA3AR (Mus musculus (Mouse), UniProt Q61618); assay: Competition binding at mA3AR, HEK293 cell membranes
hM3 muscarinic receptor = hM3 muscarinic receptor (Homo sapiens (Human), UniProt P20309); assay: Off-target binding, M3
Chain of hM3 muscarinic receptor (P20309 whole entry, looked up): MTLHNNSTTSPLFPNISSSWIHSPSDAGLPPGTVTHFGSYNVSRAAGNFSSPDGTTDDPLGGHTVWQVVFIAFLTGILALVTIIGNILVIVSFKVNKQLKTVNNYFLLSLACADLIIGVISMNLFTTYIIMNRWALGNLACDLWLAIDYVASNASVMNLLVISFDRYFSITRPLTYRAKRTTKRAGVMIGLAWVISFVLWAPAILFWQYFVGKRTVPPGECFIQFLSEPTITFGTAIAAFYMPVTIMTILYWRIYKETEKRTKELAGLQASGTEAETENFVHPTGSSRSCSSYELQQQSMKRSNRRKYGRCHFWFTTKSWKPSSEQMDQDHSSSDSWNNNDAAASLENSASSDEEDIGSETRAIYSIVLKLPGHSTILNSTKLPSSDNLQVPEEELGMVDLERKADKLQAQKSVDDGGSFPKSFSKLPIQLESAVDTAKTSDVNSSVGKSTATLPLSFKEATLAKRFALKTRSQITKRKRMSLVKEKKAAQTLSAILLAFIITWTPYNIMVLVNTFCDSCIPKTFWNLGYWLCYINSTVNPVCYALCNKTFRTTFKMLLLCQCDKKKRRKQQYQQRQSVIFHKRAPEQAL

hM4 muscarinic receptor = hM4 muscarinic receptor (Homo sapiens (Human), UniProt P08173); assay: Off-target binding, M4
hA3AR = hA3AR (Homo sapiens (Human), UniProt P0DMS8); assay: Radioligand binding at hA3AR, CHO cell membranes, [125I]I-AB-MECA
[13] = biological target: Alpha 2B adrenergic receptor (Homo sapiens (Human), UniProt P18089); assay: Off-target binding, α2B; details: read-out: Ki at α2B
Source text: as §2

hH1 histamine receptor = hH1 histamine receptor (Homo sapiens (Human), UniProt P35367); assay: Off-target binding, H1
[14] = biological target: Alpha 2C adrenergic receptor (Homo sapiens (Human), UniProt P18825); assay: Off-target binding, α2C; details: read-out: Ki at α2C
Chain of Alpha 2C adrenergic receptor (P18825 whole entry): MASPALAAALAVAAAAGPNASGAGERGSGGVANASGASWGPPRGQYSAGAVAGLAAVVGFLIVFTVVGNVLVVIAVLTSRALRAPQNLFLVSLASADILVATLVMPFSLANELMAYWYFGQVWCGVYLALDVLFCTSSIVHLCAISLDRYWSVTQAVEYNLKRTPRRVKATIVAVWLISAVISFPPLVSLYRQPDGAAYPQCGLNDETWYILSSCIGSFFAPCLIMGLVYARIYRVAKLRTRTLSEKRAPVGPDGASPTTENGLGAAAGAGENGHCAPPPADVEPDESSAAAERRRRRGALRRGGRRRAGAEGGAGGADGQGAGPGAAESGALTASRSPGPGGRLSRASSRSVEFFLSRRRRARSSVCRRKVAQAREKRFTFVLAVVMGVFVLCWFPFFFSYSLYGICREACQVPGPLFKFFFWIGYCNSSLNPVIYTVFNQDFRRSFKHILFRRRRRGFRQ
Source text: as §2

h5HT7 = h5HT7 (Homo sapiens (Human), UniProt P34969); assay: Off-target binding, 5HT7
Chain of h5HT7 (P34969 whole entry): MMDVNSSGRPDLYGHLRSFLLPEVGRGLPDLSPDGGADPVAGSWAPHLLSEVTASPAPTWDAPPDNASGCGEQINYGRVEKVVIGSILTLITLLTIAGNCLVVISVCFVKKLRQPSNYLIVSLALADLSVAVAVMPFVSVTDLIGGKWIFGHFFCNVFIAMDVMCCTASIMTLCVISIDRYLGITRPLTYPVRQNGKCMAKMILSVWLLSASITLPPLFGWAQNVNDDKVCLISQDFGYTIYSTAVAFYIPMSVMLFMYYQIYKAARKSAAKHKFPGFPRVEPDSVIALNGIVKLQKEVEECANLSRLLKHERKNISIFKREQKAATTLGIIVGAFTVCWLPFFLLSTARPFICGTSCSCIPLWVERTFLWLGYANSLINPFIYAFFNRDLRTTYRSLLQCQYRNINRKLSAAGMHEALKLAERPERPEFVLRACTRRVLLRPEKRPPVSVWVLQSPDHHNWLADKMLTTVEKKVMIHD

h5HT2B = h5HT2B (Homo sapiens (Human), UniProt P41595); assay: Off-target binding, 5HT2B; details: read-out: Ki at 5HT2B
CYP 3A4 = CYP 3A4 (Homo sapiens (Human), UniProt P08684); assay: CYP inhibition, 3A4; format: in vitro ADME
Chain of CYP 3A4 (P08684 whole entry): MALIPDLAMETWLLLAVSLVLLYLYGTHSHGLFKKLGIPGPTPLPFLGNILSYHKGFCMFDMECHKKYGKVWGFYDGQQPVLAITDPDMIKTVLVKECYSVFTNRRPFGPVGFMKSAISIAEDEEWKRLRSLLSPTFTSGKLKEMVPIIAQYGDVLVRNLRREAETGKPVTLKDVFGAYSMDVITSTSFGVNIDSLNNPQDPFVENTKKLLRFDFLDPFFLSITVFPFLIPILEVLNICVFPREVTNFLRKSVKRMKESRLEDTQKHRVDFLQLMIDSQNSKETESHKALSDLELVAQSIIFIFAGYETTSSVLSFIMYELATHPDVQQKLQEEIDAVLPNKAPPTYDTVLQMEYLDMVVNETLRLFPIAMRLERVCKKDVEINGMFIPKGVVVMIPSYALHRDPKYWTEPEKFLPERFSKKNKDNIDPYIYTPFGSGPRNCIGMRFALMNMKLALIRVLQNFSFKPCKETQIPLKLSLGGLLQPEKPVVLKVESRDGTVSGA
Source text: as §1

[15] = test system: 5 CYP isozymes (1A2, 2C9, 2C19, 2D6, 3A4); assay: Inhibition of 5 CYP isozymes; format: in vitro ADME; details: read-out: Inhibition of 5 CYP isozymes: IC50
h5HT6 = h5HT6 (Homo sapiens (Human), UniProt P50406); assay: Off-target binding, 5HT6
Chain of h5HT6 (P50406 whole entry): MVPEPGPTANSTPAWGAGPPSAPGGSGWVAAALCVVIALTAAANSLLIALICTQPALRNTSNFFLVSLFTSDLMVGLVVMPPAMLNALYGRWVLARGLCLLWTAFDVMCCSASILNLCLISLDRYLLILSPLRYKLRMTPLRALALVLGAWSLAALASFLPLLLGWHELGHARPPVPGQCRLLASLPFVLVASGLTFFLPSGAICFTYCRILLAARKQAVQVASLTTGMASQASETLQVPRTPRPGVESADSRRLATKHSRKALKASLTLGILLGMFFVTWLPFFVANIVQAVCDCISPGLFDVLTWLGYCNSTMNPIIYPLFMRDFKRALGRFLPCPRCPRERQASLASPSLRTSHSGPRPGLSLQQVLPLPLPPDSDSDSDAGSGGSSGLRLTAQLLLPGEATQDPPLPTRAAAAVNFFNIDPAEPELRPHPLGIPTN

hM1 muscarinic receptor = hM1 muscarinic receptor (Homo sapiens (Human), UniProt P11229); assay: Off-target binding, M1
Source text: as §2

[16] = % Unbound in plasma, human; format: in vitro ADME
5HT2A = assay: Off-target binding, 5HT2A
% Unbound in plasma, rat = format: in vitro ADME
[17] = mouse (m), inhibition of binding at 10 μM

## CNC(=O)[C@@]12C[C@@H]1[C@@H](n1cnc3c(NC)nc(C#Cc4ccc(Cl)s4)nc31)[C@H](O)[C@@H]2O [Compound 32, (1S,2R,3S,4R,5S)-4-(2-((5-Chlorothiophen-2-yl)ethynyl)-6-(methylamino)-9H-purin-9-yl)-2,3-dihydroxy-N-methylbicyclo[3.1.0]hexane-1-carboxamide]
[1]; liver microsomes, read-out: Stability in liver microsomes (t1/2, min): Rat
  half-life: 128 min
[2]; simulated gastric fluid, read-out: Stability in simulated fluids (t1/2, min): Gastric
  half-life: > 480 min
[2]; simulated intestinal fluid, read-out: Stability in simulated fluids (t1/2, min): Intestinal
  half-life: > 480 min
Human DAT; 10 μM
  Increase of the level of radioligand ([3H]WIN35428) binding at the human DAT: 556%
Human DAT; compound at 10 μM
  Enhancement of radioligand binding at the dopamine transporter: ~5 ×
[3]; liver microsomes, read-out: Stability in liver microsomes (t1/2, min): Human
  half-life: 230 min
mA2AAR; read-out: A2AAR % inhibition, mouse data (m) (converted)
  inhibition at 10 µM: 7%
hA2AAR
  inhibition at 10 µM: 24%
Aqueous solubility
  Aq. Solubility (pH 7.4, μg/mL): 16.8 ± 1.1 μg/mL
[4]
  Off-target effects compared with MRS5698 and MRS5676: significantly fewer off-target effects
  Interactions at other receptors of the off-target panel: No interactions
R Sigma 2; at 10 μM
  inhibition at 10 µM: 60 to 70%
R Sigma 2; off-target binding, read-out: Ki at Sigma-2 (σ2)
  Ki: 0.63 µM
C57BL/6J mice [5]
  GSH and GSSG levels in liver: no alteration
  Liver histology: remained normal
mA1AR; read-out: A1AR % inhibition, mouse data (m)
  inhibition at 10 µM: 38%
PBR
  inhibition at 10 µM: 60 to 70%
[6]
  % Unbound in plasma: Mouse: 6.40%
[7]; liver microsomes, read-out: Stability in liver microsomes (t1/2, min): Mouse
  half-life: 143 min
C57BL/6J mice [8]
  Acute liver toxicity: no acute liver toxicity
hA1AR; read-out: hA1AR % inhibition
  inhibition at 10 µM: 6%
[9]
  Effect at 3 h (% ± SEM): 83 ± 11%
  Max. effect Emax (% ± SEM): 93 ± 7%
  Time of peak protection: 0.5 to 3 h
  Efficacy in reversing NP in vivo (of full reversal at peak effect): ~100%
[10]; iv, i.v. 1 mg/kg
  half-life: 0.7 ± 0.3 h
[10]; po, p.o. 1 mg/kg
  half-life: 3.6 ± 0.4 h
[10]; po, p.o. 1 mg/kg, read-out: Cmax nM
  Cmax: 63 ± 19 nM
[10]; po, p.o. 1 mg/kg, read-out: Cmax ng/ml
  Cmax: 29 ± 8.6 ng/mL
[10]; po, p.o. 3 mg/kg
  half-life: 5.3 ± 0.8 h
[10]; po, p.o. 3 mg/kg, read-out: Cmax nM
  Cmax: 101 ± 53 nM
[10]; po, p.o. 3 mg/kg, read-out: Cmax ng/ml
  Cmax: 47 ± 24 ng/mL
[10]; po, p.o. 10 mg/kg
  half-life: 7.8 ± 2 h
[10]; po, p.o. 10 mg/kg, read-out: Cmax nM
  Cmax: 711 ± 125 nM
[10]; po, p.o. 10 mg/kg, read-out: Cmax ng/ml
  Cmax: 326 ± 57 ng/mL
[11]
  IC50: > 10 µM
[12]; […]
  Analgesic effect of the A3AR agonist dose per se: no analgesic effects per se
[12]; mouse, in vivo
  Effect on opioid-induced hypersensitivity and analgesic tolerance: block opioid-induced hypersensitivity and analgesic tolerance
R Sigma 1; at 10 μM
  inhibition at 10 µM: 60 to 70%
R Sigma 1; off-target binding
  Ki: 1.4 µM

## (1S,2R,3S,4R,5S)-4-(2-((Ferrocen-yl)ethynyl)-6-(methylamino)-9H-purin-9-yl)-2,3-dihydroxy-N-methylbicyclo[3.1.0]hexane-1-carboxamide [Compound 37]
[1]
  Stability in liver microsomes (t1/2, min): Rat: 6.64 min
[2]; simulated gastric fluid
  Stability in simulated fluids (t1/2, min): Gastric: 46.5 min
[2]; simulated intestinal fluid
  Stability in simulated fluids (t1/2, min): Intestinal: 174 min
mA3AR
  Ki: 0.00546 ± 0.00067 µM
hM3 muscarinic receptor
  Ki: < 10 µM
[3]
  Stability in liver microsomes (t1/2, min): Human: 3.66 min
mA2AAR; [17]
  A2AAR % inhibition, mouse data (m): 4% ± 2%
hM4 muscarinic receptor
  Ki: < 10 µM
Aqueous solubility
  Aq. Solubility (pH 7.4, μg/mL): 14.5 ± 1.0 μg/mL
hA3AR
  Ki: 0.00268 ± 0.00044 µM
[4]
  Off-target effects compared with MRS5698 and MRS5676: significantly fewer off-target effects
  Interactions at other receptors of the off-target panel: No significant interactions
[13]
  Ki: < 10 µM
mA1AR; [17]
  A1AR % inhibition, mouse data (m): 45% ± 2%
hH1 histamine receptor
  Ki: < 10 µM
[14]
  Ki: < 10 µM
h5HT7
  Ki: < 10 µM
[6]
  % Unbound in plasma: Mouse: 4.85%
[7]
  Stability in liver microsomes (t1/2, min): Mouse: 1.98 min
h5HT2B
  Ki: < 10 µM
hA1AR; inhibition of binding at 10 μM
  hA1AR % inhibition: 25 ± 2%
[9]
  Effect at 3 h (% ± SEM): 78 ± 3%
  Max. effect Emax (% ± SEM): 94 ± 6%
  Time of peak protection: 0.5 to 3 h
  Efficacy in reversing NP in vivo (of full reversal at peak effect): ~100%
CYP 3A4
  IC50: 9.4 µM
[15]
  IC50: > 9 µM
h5HT6
  Ki: < 10 µM
hM1 muscarinic receptor
  Ki: < 10 µM
[16]
  % Unbound in plasma: Human: 7.00%
5HT2A
  Ki: < 10 µM
% Unbound in plasma, rat
  % Unbound in plasma: Rat: 6.32%
